Measurements taken from ChEMBL document CHEMBL1201862, “PubChem BioAssay data set” (2004).
Active and inactive are the calls of the source.

What was measured:
NADPH oxidase 1 = NADPH oxidase 1 (Homo sapiens, UniProt Q9Y5S8); assay: Late-stage luminescence-based cell-based dose response assay to identify inhibitors of NADPH oxidase 1 (NOX1): Purchased analogs 2.; assay type: functional
[1] = molecular target: E3 ubiquitin-protein ligase Mdm2 (Homo sapiens, UniProt Q00987); assay: enhancers of MDM2-luciferase reporter signal, concentration-effect titration, project on inhibitors of MDM2 ubiquitin ligase, cellular assay, luminescent readout, 384-well plate format (AID 1394); assay type: functional;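 note: MDM2 E3 inhibitors raise luminescence so EC50 is for signal enhancement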
[2] = insulin promoter down-regulators in MIN6 cells, imaging, high-content screening, mouse beta cells (AID 1628); assay type: functional
[3] = cytotoxicity in MIN6 insulinoma cells, dose response, cytotoxicity control, cell-based, mouse insulinoma (AID 2122); assay type: functional;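 note: confirmatory high-throughput counterscreen run to flag cytotoxic compounds; mouse MIN-6 beta cells carrying an insulin promoter eGFP reporter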
[4] = inhibitors of intracellular T. cruzi replication, confirmation, NIH3T3 host cells, beta-gal luminescence (AID 2044); assay type: functional, cell-based;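 note: intracellular parasites grown in NIH/3T3 mouse fibroblasts as host cells; luminescent beta-galactosidase reporter signal from transgenic T. cruzi replicating inside host cells; inhibitors lower the luminescence signal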
[5] = cytotoxicity toward NIH3T3 fibroblasts, dose response, counter-screen, cell-based, ATP luminescence, mouse fibroblasts (AID 2010); assay type: functional;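 note: cells exposed to compound for about 90 hours before reading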
[6] = HepG2 cell cytotoxicity, dose response, cytotoxicity control, plate reader, cherry-pick, antagonist series (AID 743416); assay type: functional, cell-based
[7] = LGR2 antagonists, dose response, cell-based, HEK293, CRE-luciferase reporter, cherry pick, set 2 (AID 743343); assay type: functional;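 note: transfected cells were stimulated with diluted bursicon conditioned medium after compound addition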
[8] = MC4R antagonists, dose response, counter-screen for LGR2 antagonist project, cell-based, plate reader, cherry pick (AID 743444); assay type: functional;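 note: transfected HEK 293 cells stimulated with alpha-MSH peptide; potency of inhibitors of the alpha-MSH evoked signal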
[9] = HEK293 cell cytotoxicity, dose response, cytotoxicity control, plate reader, cherry-picked samples (AID 743446); assay type: functional, cell-based
[10] = Vero cell cytotoxicity, dose response, cytotoxicity control for Vif-APOBEC3G degradation inhibitor project, Vero cells (AID 1117358); assay type: functional; settings: Human immunodeficiency virus 1, Vero
Transthyretin = Transthyretin (Homo sapiens, UniProt P02766); assay: Luminescence-based cell-based high throughput dose response assay to identify activators of Transthyretin (TTR) transcription.; assay type: functional
[11] = Luminescent dose response cell-based high throughput screening assay for inhibitors of the Janus kinase 2 mutant JAK2V617F. [Related pubchem assays: 1446 (Primary screen.), 1521 (Confirmation assay.), 1486 (Counter screen.)]; assay type: functional
[12] = molecular target: T1, RNA-binding protein pos-1 (Caenorhabditis elegans, UniProt G5EF15); assay: inhibitors of POS-1/mex-3 RNA binding, dose response, biochemical, fluorescence polarization (AID 1964);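 note: purified POS-1 fused to maltose binding protein made in E. coli; potency of compounds blocking POS-1 binding to fluorescent RNA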
T1 sequence (G5EF15 whole entry): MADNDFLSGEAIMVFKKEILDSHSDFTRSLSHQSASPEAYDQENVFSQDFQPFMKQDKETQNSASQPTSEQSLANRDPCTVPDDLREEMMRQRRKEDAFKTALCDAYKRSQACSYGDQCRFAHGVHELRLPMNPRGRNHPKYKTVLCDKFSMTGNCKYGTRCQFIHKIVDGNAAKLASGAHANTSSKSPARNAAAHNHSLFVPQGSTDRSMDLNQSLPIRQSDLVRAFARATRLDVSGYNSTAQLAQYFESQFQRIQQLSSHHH

[13] = molecular target: T2, Zinc finger protein mex-5 (Caenorhabditis elegans, UniProt Q9XUB2); assay: MEX-5/TCR-2 RNA interaction inhibitors, dose response, biochemical, C. elegans, fluorescence polarization (AID 1960)
T2 sequence (Q9XUB2 whole entry): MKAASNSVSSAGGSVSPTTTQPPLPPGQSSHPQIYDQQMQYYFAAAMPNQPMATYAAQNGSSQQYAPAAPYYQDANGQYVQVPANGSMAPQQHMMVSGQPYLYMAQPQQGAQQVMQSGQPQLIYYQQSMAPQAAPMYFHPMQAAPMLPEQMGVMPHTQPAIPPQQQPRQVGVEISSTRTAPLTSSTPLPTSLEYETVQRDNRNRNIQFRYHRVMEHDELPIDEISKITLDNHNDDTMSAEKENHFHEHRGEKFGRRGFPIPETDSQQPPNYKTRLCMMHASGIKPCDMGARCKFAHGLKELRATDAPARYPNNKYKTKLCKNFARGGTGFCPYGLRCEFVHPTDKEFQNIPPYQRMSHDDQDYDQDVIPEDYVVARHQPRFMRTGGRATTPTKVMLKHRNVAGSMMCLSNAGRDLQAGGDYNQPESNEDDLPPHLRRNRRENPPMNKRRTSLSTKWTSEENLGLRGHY

[14] = molecular target: Heat shock protein HSP 90-alpha (Homo sapiens, UniProt P07900); assay: Luminescence-based dose response biochemical high throughput screening assay for inhibitors of the Heat Shock Protein 90 (HSP90). [Related pubchem assays: 1831 (Summary AID.), 1846 (Confirmation screen.), 1789 (Primary screen.)]
[15] = Dose-response inhibition of insulin secretion in a rat insulinoma line at 5 mM glucose (AID 1117331); assay type: functional, cell-based; settings: INS-1E
Cytochrome P450 2C9 = Cytochrome P450 2C9 (Homo sapiens, UniProt P11712)
[16] = P. falciparum 3D7-ScDHODH growth inhibitors, dose response, SYBR Green, dry powder samples (AID 1159570); assay type: functional, cell-based;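 note: parasite growth measured after 72 hours of compound exposure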
[17] = HepG2 cell cytotoxicity, dose response, cytotoxicity control, plate reader, dry powder samples (AID 1159569); assay type: functional, cell-based;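 note: inhibitor potency with signal falling toward the positive control level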
[18] = P. falciparum Dd2 growth inhibitors, dose response, SYBR Green, dry powder samples, set 9 (AID 1159568); assay type: functional, cell-based
[19] = P. falciparum Dd2 growth inhibitors, dose response, SYBR Green, cherry-picked samples (AID 1159567); assay type: functional, cell-based
[20] = P. falciparum Dd2 growth inhibitors, dose response, SYBR Green, dry powder samples (AID 1159566); assay type: functional, cell-based;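 note: potency for growth inhibition with lower SYBR green DNA signal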
[21] = P. falciparum ATP4 D1247Y mutant growth inhibitors, dose response, NITD609-resistant line, SYBR Green, dry powder (AID 1159571); assay type: functional, cell-based;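 note: parasites synchronized at ring stage by sorbitol before testing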
[22] = M. tuberculosis H37Rv growth inhibitors, H37Rv strain (AID 1626); assay type: functional
[23] = M. tuberculosis growth inhibition, HTS (AID 449762); assay type: functional
[24] = microbe, parasite or virus in culture; assay type: functional; settings: Mycobacterium tuberculosis
[25] = Luminescence-based dose response cell-based high throughput screening assay for cytotoxic compounds using the IEC-6 intestinal epithelial cell line. [Related pubchem assays: 1858 (Summary AID.), 1825 (Counterscreen.), 1907 (Confirmation screen.)]; assay type: functional
[26] = inhibitors of HIV Env-driven cell fusion, dose response, cherry-pick (AID 652057); assay type: functional, cell-based
[27] = CEM21 lymphoblast cell cytotoxicity, dose response, cytotoxicity control for viral fusion inhibitor project, CellTiter-Glo luminescence, cherry-picked (AID 652042); assay type: functional, cell-based;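 note: potency for signal decrease meaning cytotoxicity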
[28] = ZM109 Env clade C HIV-1 fusion inhibitors, dose response, HeLa effector, CEM target cells, luciferase, cherry-pick (AID 652058); assay type: functional, cell-based
[29] = off-target signal loss in HeLa-CEM21 co-culture – HeLa F-luc CTL cells, cherry-picked, counter-screen for HIV-1 Env fusion inhibitor project, dose response (AID 652040); assay type: functional, cell-based;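 note: potency for signal decrease marking cytotoxic or nonspecific inhibition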
[30] = inhibitors of clade B AD8 Env fusion, dose response, cell-based, cherry-pick (AID 652062); assay type: functional;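 note: luciferase signal from cell-cell fusion driven by HIV-1 clade B AD8 Env; potency is for inhibitors of fusion seen as a drop in luminescence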
[31] = molecular target: RNA-editing ligase 1, mitochondrial (Trypanosoma brucei brucei, UniProt P86926); assay: TbREL1 ligase inhibitors, dose response, biochemical, fluorescence, Trypanosoma brucei (AID 1117295); assay type: functional
HEK293 [32] = assay: cells; settings: Homo sapiens
HEK293 [33] = assay: cells; settings: Homo sapiens; remark: listed apart in the source
Genome polyprotein = Genome polyprotein (Hepatitis C virus, UniProt Q2Q167); assay: HCV core protein dimerization inhibitors, dose response, biochemical, TR-FRET (AID 2159); design: species or system Hepacivirus hominis;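 note: blocks dimerization of HCV core protein measured by TR-FRET between tagged core106 pairs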
Genome polyprotein, sequence (Q2Q167 whole entry): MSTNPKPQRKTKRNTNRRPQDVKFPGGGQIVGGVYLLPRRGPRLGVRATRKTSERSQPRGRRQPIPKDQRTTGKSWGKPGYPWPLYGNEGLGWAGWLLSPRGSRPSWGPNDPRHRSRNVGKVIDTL

Cytochrome P450 2C9, sequence (P11712 whole entry): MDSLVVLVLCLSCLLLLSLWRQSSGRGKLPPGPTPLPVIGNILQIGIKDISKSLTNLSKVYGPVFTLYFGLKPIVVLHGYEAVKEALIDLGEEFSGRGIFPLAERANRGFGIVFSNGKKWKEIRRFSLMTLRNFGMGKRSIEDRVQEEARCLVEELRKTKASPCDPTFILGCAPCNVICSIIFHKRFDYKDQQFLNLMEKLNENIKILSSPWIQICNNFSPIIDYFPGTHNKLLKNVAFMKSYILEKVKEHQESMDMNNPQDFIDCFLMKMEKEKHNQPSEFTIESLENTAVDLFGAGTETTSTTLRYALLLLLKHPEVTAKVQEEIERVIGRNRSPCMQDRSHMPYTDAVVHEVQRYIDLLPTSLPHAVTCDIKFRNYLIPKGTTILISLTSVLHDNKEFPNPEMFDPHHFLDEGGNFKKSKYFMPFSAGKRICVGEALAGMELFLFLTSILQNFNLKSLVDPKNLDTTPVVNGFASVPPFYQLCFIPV
NADPH oxidase 1, sequence (Q9Y5S8 whole entry): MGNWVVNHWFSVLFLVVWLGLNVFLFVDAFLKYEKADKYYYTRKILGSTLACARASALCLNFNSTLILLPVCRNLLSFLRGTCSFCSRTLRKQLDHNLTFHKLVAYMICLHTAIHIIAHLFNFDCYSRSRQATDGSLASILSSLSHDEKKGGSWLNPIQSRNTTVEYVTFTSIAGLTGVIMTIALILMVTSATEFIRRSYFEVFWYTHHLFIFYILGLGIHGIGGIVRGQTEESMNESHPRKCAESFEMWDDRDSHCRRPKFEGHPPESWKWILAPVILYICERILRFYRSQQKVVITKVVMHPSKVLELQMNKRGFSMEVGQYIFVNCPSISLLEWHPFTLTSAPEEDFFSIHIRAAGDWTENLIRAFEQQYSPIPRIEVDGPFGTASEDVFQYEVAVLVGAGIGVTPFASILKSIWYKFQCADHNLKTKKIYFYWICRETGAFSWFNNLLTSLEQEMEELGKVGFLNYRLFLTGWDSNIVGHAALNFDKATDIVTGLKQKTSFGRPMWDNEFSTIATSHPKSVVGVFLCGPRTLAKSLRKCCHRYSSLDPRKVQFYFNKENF
RNA-editing ligase 1, mitochondrial, sequence (P86926 whole entry): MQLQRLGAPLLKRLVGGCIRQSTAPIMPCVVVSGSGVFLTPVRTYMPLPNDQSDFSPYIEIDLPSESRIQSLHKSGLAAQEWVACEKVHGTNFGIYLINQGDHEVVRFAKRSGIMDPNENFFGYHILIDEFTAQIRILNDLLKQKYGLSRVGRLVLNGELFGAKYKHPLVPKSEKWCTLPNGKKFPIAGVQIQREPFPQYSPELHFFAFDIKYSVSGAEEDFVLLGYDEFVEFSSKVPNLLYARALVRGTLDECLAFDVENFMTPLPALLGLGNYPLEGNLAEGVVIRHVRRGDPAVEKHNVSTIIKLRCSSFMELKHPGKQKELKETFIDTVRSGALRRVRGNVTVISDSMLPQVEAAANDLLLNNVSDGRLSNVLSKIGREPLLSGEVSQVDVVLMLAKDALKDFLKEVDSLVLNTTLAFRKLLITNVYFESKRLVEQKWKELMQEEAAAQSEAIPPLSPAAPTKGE
E3 ubiquitin-protein ligase Mdm2, sequence (Q00987 whole entry): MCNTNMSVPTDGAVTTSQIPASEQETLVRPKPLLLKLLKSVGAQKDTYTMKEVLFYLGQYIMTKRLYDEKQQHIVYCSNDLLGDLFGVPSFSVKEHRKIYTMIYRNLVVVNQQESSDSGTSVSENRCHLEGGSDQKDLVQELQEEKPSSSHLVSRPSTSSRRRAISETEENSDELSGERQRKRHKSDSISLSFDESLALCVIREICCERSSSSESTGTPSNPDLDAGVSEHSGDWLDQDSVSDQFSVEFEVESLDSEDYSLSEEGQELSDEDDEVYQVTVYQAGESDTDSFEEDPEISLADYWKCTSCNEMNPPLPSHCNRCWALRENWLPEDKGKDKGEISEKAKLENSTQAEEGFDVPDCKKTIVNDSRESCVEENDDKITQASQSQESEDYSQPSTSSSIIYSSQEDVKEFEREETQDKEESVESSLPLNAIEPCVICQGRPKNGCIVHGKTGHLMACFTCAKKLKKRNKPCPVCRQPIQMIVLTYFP

## CC(=O)Nc1ccc(CC(=O)Nc2ccc(Oc3ccc(Br)cc3)cc2)cc1
NADPH oxidase 1
  IC50: > 17 µM (not active)

## CC(=O)c1ccc(OCC(O)Cn2nnc3ccccc32)cc1 (configuration not stated)
[1]
  EC50: 12.7 µM (not active)

## Cc1cc(C)c(Cc2c(C)nc3c(C(=O)NCc4ccco4)cnn3c2C)c(C)c1
[2]
  IC50: 1.51 µM (active)
[3]
  IC50: 1.42 µM (active)
[4]
  EC50: 2.67 µM (active)
[5]
  EC50: > 60 µM (not active)
[6]
  AC50: 32.9 µM (active)
[7]
  AC50: 19.9 µM (active)
[8]
  AC50: 55.6 µM (active)
[9]
  AC50: 50 µM (active)
[10]
  CC50: > 40 µM (active)

## COc1ccc([C@@H]2CC=C(C(=O)O)[C@H](c3ccccc3F)N2S(=O)(=O)c2ccccc2C)cc1
Transthyretin
  EC50: > 167 µM (inactive)

## O=c1oc2ccc(Cl)cc2nc1/C=C(\O)c1ccco1
[11]
  IC50: 1.5 µM (active)
[12]
  EC50: > 300 µM (not active)
[13]
  EC50: > 300 µM (not active)
[14]
  IC50: 2.73 µM (active)

## COc1ccccc1N1CCN(CCCCNC(=O)c2ccc(-c3ccc(C(C)=O)cc3)cc2)CC1
[15]
  IC50: > 33.3 µM (inactive)
Cytochrome P450 2C9
  AC50: inconclusive

## CCCNC(=O)N1[C@H](C#N)[C@H](c2ccc(-c3ccccc3F)cc2)[C@@H]1CO
[16]
  AC50: 6.61 µM (active)
[17]
  AC50: 1.6 µM (active)
[18]
  AC50: 0.608 µM (active)
[19]
  AC50: 0.522 µM (active)
[20]
  AC50: 0.377 µM (active)
[21]
  AC50: 0.511 µM (active)

## CCOC(=O)N1CCN=C1SCc1ccc(C(F)(F)F)cc1
[22]
  IC50: > 100 µM (active)
[23]
  IC50: > 100 µM (active)

## CC(C)Cc1ccc(C(C)C(=N)NCCc2ccccc2)cc1 (configuration not stated)
[24]
  CC50: 12.1 µM (active)
[25]
  IC50: 3.3 µM (active)
[26]
  AC50: 2.78 µM (active)
[27]
  AC50: 14.3 µM (active)
[28]
  AC50: 4.62 µM (active)
[29]
  AC50: 7.77 µM (active)
[30]
  AC50: 21.6 µM (active)
[31]
  IC50: > 96.6 µM (inactive)
HEK293 [32]
  EC50: > 59.7 µM (inactive)
HEK293 [33]
  EC50: > 59.7 µM (inactive)

## NS(=O)(=O)c1ccc(NC(=O)c2ccc(S(=O)(=O)N3CCc4ccccc43)cc2)cc1
Genome polyprotein
  IC50: > 49.8 µM (not active)
